The values that follow come from patent US20190119348A1, “PARATHYROID HORMONE RECEPTOR 1 ANTAGONIST AND INVERSE AGONIST POLYPEPTIDES AND METHODS OF THEIR USE” (The General Hospital Corporation, priority 2016, published 2019).

Where a SMILES comes first, the peptide text is derived from it. [ ]: non-standard residue; d: D form.

This assay deals with T1, endogenous hPTHR1 (Homo sapiens, UniProt Q03431).
T1 construct: Saos-2, in which is endogenously expressed the hPTHR1; endogenous in cells
T1 sequence (Q03431 27-593): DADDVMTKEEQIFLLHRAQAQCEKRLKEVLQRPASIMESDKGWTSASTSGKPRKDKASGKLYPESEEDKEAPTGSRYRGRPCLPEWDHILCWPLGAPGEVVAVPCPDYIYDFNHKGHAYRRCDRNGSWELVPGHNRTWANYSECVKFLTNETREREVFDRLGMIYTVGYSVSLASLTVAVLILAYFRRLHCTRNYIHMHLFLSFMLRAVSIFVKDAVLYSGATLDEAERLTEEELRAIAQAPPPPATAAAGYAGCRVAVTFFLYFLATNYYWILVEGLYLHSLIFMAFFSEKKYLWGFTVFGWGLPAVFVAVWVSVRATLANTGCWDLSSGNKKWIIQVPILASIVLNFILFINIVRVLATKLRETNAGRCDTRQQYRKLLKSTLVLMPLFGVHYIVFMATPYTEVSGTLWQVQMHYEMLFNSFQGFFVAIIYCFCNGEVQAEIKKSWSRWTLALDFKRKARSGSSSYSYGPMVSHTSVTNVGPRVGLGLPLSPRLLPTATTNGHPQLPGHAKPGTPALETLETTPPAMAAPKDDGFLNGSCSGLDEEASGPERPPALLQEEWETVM
The experiment in a line: Antagonism of PTH(1-34)- and PTHrP(1-36)-induced cAMP response (GloSensor) in SGS-72 cells. It counts as cell-based. The following applies: IC50 PTH(1-34) (Table 6, nanomolar value), antagonist pre-treatment 15 minutes, PTH(1-34) 0.3 nM. The gist of the method:
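SaOS2-derived SGS-72 cells, which express endogenous hPTHR1 and a stable GloSensor cAMP reporter, were loaded with 0.5 mM luciferin for 15 min at room temperature in CO2-independent medium with 0.1% BSA. Antagonist was tested against PTH(1-34) or PTHrP(1-36), with luminescence taken at the agonist-alone maximum; pIC50 came from four-parameter fits.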

One may read the IC50 as the midpoint of a concentration-inhibition curve. In the case of `CC[C@H](C)[C@H](N)C(=O)N[C@@H](CCC(N)=O)C(=O)N[C@@H](CC(C)C)C(=O)N[C@@H](CCSC)C(=O)N[C@@H](Cc1c[nH]cn1)C(=O)N[C@@H](CCC(N)=O)C(=O)N[C@@H](CC(C)C)C(=O)N[C@H](Cc1c[nH]c2ccccc12)C(=O)N[C@@H](CCCCN)C(=O)N[C@@H](Cc1c[nH]c2ccccc12)C(=O)N[C@H](C(=O)N[C@@H](CCC(N)=O)C(=O)N[C@@H](CC(=O)O)C(=O)N[C@@H](C)C(=O)N[C@@H](CCCNC(=N)N)C(=O)N[C@@H](CCCNC(=N)N)C(=O)N[C@@H](CCCNC(=N)N)C(=O)N[C@@H](C)C(=O)N[C@@H](Cc1c[nH]c2ccccc12)C(=O)N[C@@H](CC(C)C)C(=O)N[C@@H](Cc1c[nH]cn1)C(=O)N[C@@H](CCCCN)C(=O)N[C@@H](CC(C)C)C(=O)N[C@H](C(=O)N[C@@H](C)C(=O)N[C@@H](CCC(=O)O)C(=O)N[C@H](C(=O)N[C@@H](Cc1c[nH]cn1)C(=O)N[C@H](C(=O)N[C@@H](C)C(=O)N[C@@H](CCC(=O)O)C(=O)N[C@H](C(N)=O)[C@@H](C)CC)[C@@H](C)O)[C@@H](C)CC)[C@@H](C)CC)[C@@H](C)CC` [compound 2003, L11, dW12, W23-LA-PTH(5-36)-2003] (H-IQLMHQL[dW]KWIQDARRRAWLHKLIAEIHTAEI-NH2; N-terminus assumed), the IC50 turned out to be 2.57 nM.
